Experimental data reported in US7109243B2 (IRM LLC, priority 2003, dated 2006).

How the values were obtained:
Cathepsin S = Cathepsin S (Homo sapiens, UniProt P25774); experiment: Cathepsin S inhibition assay (fluorogenic peptide substrate); format: biochemical; details: Table II, compounds of Formula I; read-out: Ki Cat. S
Experimental: “Inhibition constant”, Ki, is the dissociation constant of the enzyme-inhibitor complex, or the reciprocal of the binding affinity of the inhibitor to the enzyme. […] The inhibited rates are then fit by nonlinear regression to the following equation: […]
The assumption being made for the classical inhibition described above is that the free inhibitor concentration is equal to the total inhibitor concentration.
Kinetic measurements are performed in a total reaction volume of 30 μl in 384-well microtiter plates. […] The reactions are initiated by adding the substrate, acetyl-histidine-proline-valine-lysine-amino carbamoyl coumarin, to a final concentration of 50 μM. The rate of substrate hydrolysis is measured by monitoring the increase in fluorescence at an excitation wavelength of 380 nm and an emission wavelength of 450 nm that results from cleavage of the aniline bond in the substrate by the enzyme.

Cathepsin K = target: T1, Cathepsin K (Homo sapiens, UniProt P43235); experiment: Cathepsin K inhibition assay (fluorogenic peptide substrate); selectivity ratio vs cathepsin S; format: biochemical; details: ratio of cathepsin K inhibition constant to cathepsin S inhibition constant; Table II
T1 sequence (P43235 115-329): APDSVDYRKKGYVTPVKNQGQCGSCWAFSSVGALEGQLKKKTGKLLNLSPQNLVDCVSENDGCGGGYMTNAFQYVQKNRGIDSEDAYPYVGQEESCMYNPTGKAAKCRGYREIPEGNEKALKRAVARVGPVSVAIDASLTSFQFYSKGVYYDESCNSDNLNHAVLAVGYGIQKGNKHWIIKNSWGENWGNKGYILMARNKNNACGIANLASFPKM
Experimental: The optimal substrate for cathepsin K, acetyl-lysine-histidine-proline-lysine-amino carbamoyl coumarin, was identified from screening a combinatorial library of fluorogenic peptide substrates (Harris, J. L., B. J. Backes, et al., Proc Natl Acad Sci USA 2000, 97(14), 7754-9). Kinetic measurements are performed in a total reaction volume of 30 μl in 384-well microtiter plates. […] The reactions are initiated by adding the substrate, acetyl-lysine-histidine-proline-lysine-amino carbamoyl coumarin, to a final concentration of 40 μM. The rate of substrate hydrolysis is measured by monitoring the increase in fluorescence at an excitation wavelength of 380 nm and an emission wavelength of 450 nm that results from cleavage of the aniline bond in the substrate by the enzyme. The apparent inhibition constants for the compounds are determined from the enzyme progress curves ([…]. Elrod, et al., Anal Biochem 2000, 286(1), 45-50) and are then used to calculate the inhibition constants for competitive inhibitors. Selectivity for cathepsin S in the presence of cathepsin isozymes was determined by the ratio of the cathepsin isozyme inhibition constant of a compound of the present invention to the cathepsin S inhibition constant of the same compound.

Cathepsin S, sequence (P25774 115-331, species assumed): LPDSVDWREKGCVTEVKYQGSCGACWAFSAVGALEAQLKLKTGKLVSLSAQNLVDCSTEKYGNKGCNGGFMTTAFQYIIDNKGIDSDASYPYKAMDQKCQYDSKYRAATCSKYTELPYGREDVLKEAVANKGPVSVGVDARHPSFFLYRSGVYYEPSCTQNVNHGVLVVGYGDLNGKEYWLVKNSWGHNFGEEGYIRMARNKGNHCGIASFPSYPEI

## O=C(N[C@@H](CC1CCCCC1)C(=O)NCCNc1ccc(F)cc1)C(F)c1ccccc1 (mixture of isomers) [Compound 86, 3-Cyclohexyl-2-(S)-(2-(R,S)-fluoro-2-phenyl-acetylamino)-N-[2-(4-fluoro-phenylamino)-ethyl]-propionamide]
Cathepsin S
  Ki: < 100 nM
Cathepsin K
  Selectivity for Cat. S over Cat. K: ++ (++, >100)

## CC(C(=O)NC(CC1CCCCC1)C(=O)NCCNc1ccc(F)cc1)c1ccc(F)cc1 (mixture of isomers) [Compound 320, N-(S)-{2-cyclohexyl-1-[2-(4-fluoro-phenylamino)-ethylcarbamoyl]-ethyl}-2-(R,S)-(4-fluoro-phenyl)-propionamide]
Cathepsin S
  Ki: < 100 nM
Cathepsin K
  Selectivity for Cat. S over Cat. K: ++ (++, >100)

## COc1ccc(NCCNC(=O)C(NC(=O)c2cccc(C)c2)c2ccc(Cl)cc2)cc1 (racemic) [Compound 8, (±)-N-((2-(4-methoxyphenylamino)ethylcarbamoyl)(4-chlorophenyl)methyl)-3-methylbenzamide]
Cathepsin S
  Ki: < 100 nM
Cathepsin K
  Selectivity for Cat. S over Cat. K: +++ (+++, >1000)

## COc1ccc(NCCNC(=O)C(NC(=O)c2ccc(-c3cccc(C(F)(F)F)c3)o2)c2ccccc2)cc1 (racemic) [Compound 9, (±)-N-((2-(4-methoxyphenylamino)ethylcarbamoyl)(phenyl)-methyl)-5-(3-(trifluoromethyl)phenyl)furan-2-carboxamide]
Cathepsin S
  Ki: < 1000 nM
Cathepsin K
  Selectivity for Cat. S over Cat. K: + (+, >10)

## COc1ccc(NCCNC(=O)[C@H](CCc2ccccc2)NC(=O)c2ccc(-c3cccc(C(F)(F)F)c3)o2)cc1 [Compound 1, N-((S)-1-(2-(4-methoxyphenylamino)ethylcarbamoyl)-3-phenylpropyl)-5-(3-(trifluoromethyl)phenyl)furan-2-carboxamide]
Cathepsin S
  Ki: < 1000 nM
Cathepsin K
  Selectivity for Cat. S over Cat. K: ++ (++, >100)

## COc1ccc(NCCNC(=O)[C@H](Cc2ccccc2Cl)NC(=O)c2ccc(-c3cccc(C(F)(F)F)c3)o2)cc1 [Compound 2, N-((S)-1-(2-(4-methoxyphenylamino)ethylcarbamoyl)-2-(2-chlorophenyl)ethyl)-5-(3-(trifluoromethyl)phenyl)furan-2-carboxamide]
Cathepsin S
  Ki: < 100 nM
Cathepsin K
  Selectivity for Cat. S over Cat. K: + (+, >10)

## COc1ccc(NCCNC(=O)[C@H](Cc2cccc(Cl)c2)NC(=O)c2ccc(-c3cccc(C(F)(F)F)c3)o2)cc1 [Compound 3, N-((S)-1-(2-(4-methoxyphenylamino)ethylcarbamoyl)-2-(3-chlorophenyl)ethyl)-5-(3-(trifluoromethyl)phenyl)furan-2-carboxamide]
Cathepsin S
  Ki: < 100 nM
Cathepsin K
  Selectivity for Cat. S over Cat. K: +++ (+++, >1000)

## COc1ccc(NCCNC(=O)[C@H](Cc2ccc(Cl)cc2)NC(=O)c2ccc(-c3cccc(C(F)(F)F)c3)o2)cc1 [Compound 4, N-((S)-1-(2-(4-methoxyphenylamino)ethylcarbamoyl)-2-(4-chlorophenyl)ethyl)-5-(3-(trifluoromethyl)phenyl)furan-2-carboxamide]
Cathepsin S
  Ki: < 100 nM
Cathepsin K
  Selectivity for Cat. S over Cat. K: +++ (+++, >1000)

## COc1ccc(NCCNC(=O)[C@H](CC2CCOCC2)NC(=O)c2ccc(-c3cccc(C(F)(F)F)c3)o2)cc1 [Compound 5, N-((S)-1-(2-(4-methoxyphenylamino)ethylcarbamoyl)-2-(tetrahydro-2H-pyran-4-yl)ethyl)-5-(3-(trifluoromethyl)phenyl)furan-2-carboxamide]
Cathepsin S
  Ki: < 1000 nM
Cathepsin K
  Selectivity for Cat. S over Cat. K: + (+, >10)

## (S)-3-Bromo-N-{1-[2-(4-methoxy-phenylamino)-ethylcarbamoyl]-2-phenyl-ethyl}-4-methyl-benzamide [Compound 24]
Cathepsin K
  Selectivity for Cat. S over Cat. K: + (+, >10)
